Experimental data from PubChem BioAssay (NCI).
Several values for one entry are separate records, joined by “and”; a condition that tells them apart may be missing. Equal entries are not always repeated.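 Results reflect a 48-hour exposure of cells in 96-well plates to compound at five concentrations. GI50 is the concentration that inhibits growth by half. Definition used: TGI = concentration required for complete inhibition of growth.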

How the values were obtained:
Experiment in all cases: inhibition of tumour cell growth, NCI panel, 48 h
SNB-19 CNS = tested on: SNB-19 CNS
OVCAR-3 ovarian = tested on: OVCAR-3 ovarian
NCI-H522 lung = tested on: NCI-H522 lung
OVCAR-8 ovarian = tested on: OVCAR-8 ovarian
K-562 leukemia = tested on: K-562 leukemia
HCT-116 colon = tested on: HCT-116 colon
NCI-H460 lung = tested on: NCI-H460 lung
CAKI-1 renal = tested on: CAKI-1 renal
HCC-2998 colon = tested on: HCC-2998 colon
HS 578T breast = tested on: HS 578T breast

| SMILES | TGI (SNB-19 CNS) | TGI (OVCAR-3 ovarian) [µM] | TGI (NCI-H522 lung) [µM] | TGI (OVCAR-8 ovarian) | TGI (K-562 leukemia) | TGI (HCT-116 colon) | TGI (NCI-H460 lung) | TGI (CAKI-1 renal) | TGI (HCC-2998 colon) | GI50 (OVCAR-3 ovarian) [µM] | GI50 (OVCAR-8 ovarian) [µM] | GI50 (K-562 leukemia) [µM] | GI50 (HCC-2998 colon) [µM] | GI50 (NCI-H460 lung) [µM] | GI50 (CAKI-1 renal) [µM] | TGI (HS 578T breast) [µM] | GI50 (HS 578T breast) [µM] | GI50 (HCT-116 colon) [µM] | GI50 (SNB-19 CNS) [µM] | GI50 (NCI-H522 lung) [µM] |
| --- | --- | --- | --- | --- | --- | --- | --- | --- | --- | --- | --- | --- | --- | --- | --- | --- | --- | --- | --- | --- |
| O=c1c(-c2ccccc2)c[nH]c2cc([N+](=O)[O-])c(/C(Cl)=C/c3ccccc3)cc12 | > 54.5 µM | 8.72 | 16.3 | 17.5 µM | 20.7 µM | 29.9 µM | 44.8 µM | 87.7 µM |  |  |  |  |  |  |  |  |  |  |  |  |
| C[Si](C)(C)C#C[I+]c1ccccc1 | > 100 µM | 86.2 | 23.3 | 50.1 µM | > 100 µM | 56.6 µM | > 100 µM | > 100 µM | > 100 µM |  |  |  |  |  |  |  |  |  |  |  |
| COc1cc(-c2ccc(-c3ccc(C(=N)N)s3)s2)cc(OC)c1OC |  | 4.71 |  | 5.31 µM | 3.41 µM |  | 3.64 µM | 3.28 µM | 3.24 µM | 2.22 | 2.62 | 1.11 | 1.76 | 1.99 | 1.7 |  |  |  |  |  |
| O=C(CCN1CCCC1)Nc1ccc2c(NCCCCc3ccccc3)c3ccccc3nc2c1 |  | 2.57 |  |  |  |  | 1.76 µM | 22.3 µM | 2.14 µM | 1.25 |  |  | 0.815 | 0.53 | 9.49 |  |  |  |  |  |
| Cc1c2cc[n+](C)cc2c(C)c2c1[nH]c1ccc(O)cc12 | 22.5 µM | > 89.3 | 55.9 | > 98.3 µM | > 82.1 µM | > 91.6 µM | 24.7 µM | > 100 µM | 98.7 µM |  |  |  |  |  |  | 5.7 |  |  |  |  |
| CCOC(=O)c1c(NC(=S)NCc2ccccc2)sc2c1CCN(C)C2 | > 100 µM | > 100 |  | > 100 µM | 46.1 µM | > 100 µM | > 100 µM | > 100 µM |  |  |  |  |  |  |  | > 100 |  |  |  |  |
| Cc1c2cc[n+](C)cc2c(COC2OC(CO)C(O)C2O)c2c3ccccc3n(C)c12 (stereo unspecified) | > 95.7 µM | > 100 | > 100 | > 100 µM | > 100 µM | > 100 µM | > 100 µM | > 100 µM | > 100 µM |  |  |  |  |  |  |  |  |  |  |  |
| COc1cc2c(cc1-c1c(C)noc1C)ncc1nc(C3CCCCC3)n(C3CCC(OC(F)F)CC3)c12 (stereo unspecified) |  |  |  | > 100 µM | > 100 µM |  | > 100 µM | > 100 µM |  |  | 2.74 | 1.75 |  | 2.53 | 1.03 | > 100 | 3.74 |  |  |  |
| NC(=O)c1cc2ccccc2c(N=Nc2ccccc2)c1O | > 100 µM | > 100 | > 100 | > 100 µM | > 100 µM | > 100 µM |  | 69.9 µM |  |  |  |  |  |  |  | > 100 |  |  |  |  |
| CC(=O)OC1CC2(O)C(CCC3(C)C(c4ccc(=O)oc4)CCC32O)C2(C)CCC(O)C=C12 (stereo unspecified) | 0.225 µM and 0.244 µM | 0.0229 | 0.00626 | 0.0926 µM and 0.0472 µM | 0.256 µM and 0.178 µM | 0.104 µM and 0.0477 µM | 0.0271 µM and 0.0388 µM | 0.124 µM and 0.0425 µM | 0.357 µM and 0.195 µM |  | 0.0375 | 0.0128 | 0.0437 | 0.0375 | 0.015 |  |  | 0.00498 |  |  |
| N#Cc1ccc(Nc2nc3nc[nH]c3c(=O)[nH]2)cc1 | > 100 µM | > 100 | > 100 | > 100 µM |  | > 100 µM | > 100 µM | > 100 µM | > 100 µM |  |  |  |  |  |  | > 100 |  |  |  |  |
| CC(=O)O[C@H]1C(=O)[C@]2(C)[C@@H](OC(=O)OCC(O)CO)C[C@H]3OC[C@@]3(OC(C)=O)[C@H]2[C@H](OC(=O)c2ccccc2)[C@]2(O)C[C@H](OC(=O)[C@H](O)[C@@H](NC(=O)c3ccccc3)c3ccccc3)C(C)=C1C2(C)C (stereo partly specified) | > 100 µM | < 0.01 |  | > 78.1 µM | > 100 µM | > 38.9 µM | 27.6 µM | > 68.8 µM | < 0.01 µM |  |  |  |  |  |  | < 0.01 |  |  |  |  |
| COc1cccc2c1C(=O)c1c(O)c3c(c(O)c1C2=O)C[C@@](O)(C(C)=O)C[C@@H]3OC1CC(N)C(O)C(C)O1 (stereo partly specified) |  |  |  |  |  |  |  |  |  | 0.0664 | < 0.0201 | < 0.01 |  |  |  |  |  | < 0.0135 | < 0.0135 | < 0.0155 |
| CN1CCN(c2ccc3nc(-c4ccc(OCCCN5C(=O)c6cccc7cccc(c67)C5=O)cc4)[nH]c3c2)CC1 | 69.6 µM | 95.6 | > 88.8 | 5.48 µM | 4.54 µM |  |  | > 100 µM | 52.6 µM | 27.1 | 2.38 | 0.889 | 20.6 |  | 18.8 | 4.6 | 2.11 |  | 31 | 24.9 |
| CCP(=O)(CC)C(Cl)(Cl)C(=O)NC | > 100 µM | > 100 | > 100 | > 100 µM | > 100 µM | > 100 µM | > 100 µM | > 100 µM | > 100 µM |  |  |  |  |  |  | > 100 |  |  |  |  |
| CC(C)(C)CC(C)(C)Cc1ccc(OCCOCC[N+](C)(C)Cc2ccccc2)cc1 |  | 3.09 | 4.45 |  | 3.57 µM |  | 3.45 µM | 13.8 µM | 3.02 µM | 1.34 |  | 0.966 | 1.58 | 1.8 | 3.47 | 4.75 | 2.03 |  |  | 1.55 |
